# Data: patent US20040121968A1, “Antiangiogenesis by inhibiting protein kinase CK2 activity” (priority 2002, published 2004)
# Starred links: 1 amine or outer side, 2 acyl side, 3 side chain; linkers in the order of their positions; H or OH if unused. Positions of bridges follow the written chain, without caps; N, C: chain ends. Non-standard residues stand in square brackets, D forms with d. Residues, ends and D or L forms follow the SMILES beside them. Chains are numbered I, II in the order given. Actinocin(9to1) = Cc1c2oc3c(C)ccc(C(=O)[*:1])c3nc-2c(C(=O)[*:2])c(N)c1=O; NMeV = CN[C@H](C(=O)O)C(C)C; Sar = CNCC(=O)O
# Test system: retinal endothelial cells (REC)
# Assay: REC angiogenic assays taken together (proliferation, secondary sprouting, migration, tube formation)
# Assay type: cell-based, bovine
# Conditions: all assays
# Method: Human REC (from normal, diabetic and patients with DR [“DR REC”]) and bovine REC were cultured in monolayer (for migration assay) or on top of Matrigel™ where cells form capillary-like tubes. They were treated with angiogenic growth factors or their combinations (at 10 ng/ml of each factor), and seeded with or without TN-C at 10-50 μg/mL. Cell numbers were determined by MTS assay (Promega Corp., Madison, Wis.). Tube length and number, and cell migration were assessed microscopically.
# Treatment of REC cultures. Duplicate REC cultures on plastic (for migration) or Matrigel™ with the same number of cells per dish are treated with previously established working concentrations of signaling inhibitors and/or select growth factor combinations. Treatments begin at the time of seeding the cells and medium is changed every other day. Single growth factors are used as negative controls since their modulation of TN-C effects was minimal. Working growth factor concentrations were as follows: VEGF, 1-50 ng/mL depending on the assay; PlGF, 100 ng/mL; FGF-2, 10-100 ng/mL; IGF-I, 25-100 ng/mL; PDGF-BB, 10-100 ng/mL. When used as combinations, each growth factor was supplied at 10 ng/mL for optimum synergy. […]
structure (smiles),measurement,value
"Cc1c2oc3c(C)ccc(C(=O)N[C@@H]4C(=O)N[C@H](C(C)C)C(=O)N5CCC[C@H]5C(=O)N(C)CC(=O)N(C)[C@@H](C(C)C)C(=O)O[C@@H]4C)c3nc-2c(C(=O)N[C@@H]2C(=O)N[C@H](C(C)C)C(=O)N3CCC[C@H]3C(=O)N(C)CC(=O)N(C)[C@@H](C(C)C)C(=O)O[C@@H]2C)c(N)c1=O [Actinomycin D] (I: T[dV]P[Sar][NMeV] / II: T[dV]P[Sar][NMeV]; ester I:1-I:C, II:1-II:C; linker I:N-II:N via Actinocin(9to1))",effect of inhibitor in the angiogenic assays,only minor changes
